Experimental data taken from patent publication US20180256673A1, “METHODS FOR TREATING FUNGAL INFECTIONS” (priority 2015, published 2018).
Values after ≈ are worked out from the molar mass of the structure shown.

Legend:
C. albicans NRRL Y-477 [1] = test: Broth microdilution MIC (CLSI), Examples 3 and 4
Description: Antifungal susceptibility testing. […] MIC assays were performed in triplicate.

[2] = Solubility of test articles in vehicle, visual observation (Table 22); type: physicochemical
Description: Test Articles. […] Amphotericin B and fluconazole were in powder form. Amphotericin B was dissolved in 0.9% NaCl. Fluconazole was dissolved in water (WFI: water for injection).

[3] = system: C. glabrata ATCC 90030, ATCC 2001; test: microbe, parasite or virus in culture; type: cell-based, Candida glabrata
[4] = system: azole-resistant Candida albicans (R357); test: Disseminated infection model in neutropenic ICR mice, kidney fungal counts (Example 10, Tables 22-23); type: in vivo
C. albicans NRRL Y-477 [5] = test: microbe, parasite or virus in culture; type: cell-based, Candida albicans
[6] = system: Aspergillus fumigatus (ATCC 13073); test: Neutropenic mouse model of disseminated aspergillosis, survival; type: in vivo; conditions: in vivo
C. parapsilosis CP02 [7] = test: microbe, parasite or virus in culture; type: cell-based, Candida parapsilosis
[8] = system: azole-resistant Candida albicans R357 strain; test: microbe, parasite or virus in culture; type: cell-based
[9] = system: C. glabrata ATCC 90030, ATCC 2001; test: Broth microdilution MIC (CLSI), Examples 3 and 4; conditions: for Broth MIC: 24 h, ~50% inhibition
Description: (§1) Antifungal susceptibility testing. Candida strains were cultured aerobically at 35° C. on SDA plates or in RPMI 1640 broth (pH 7.0). […] MIC assays were performed in triplicate.

C. krusei ATCC 6258 [10] = test: microbe, parasite or virus in culture; type: cell-based, Candida krusei
C. parapsilosis CP02 [11] = test: Broth microdilution MIC (CLSI), Examples 3 and 4; conditions: CP02 wild-type; 24 h, ~50% inhibition
Description: as §1

C. krusei ATCC 6258 [12] = test: Broth microdilution MIC (CLSI), Examples 3 and 4; conditions: ATCC 6258 wild-type; 24 h, ~50% inhibition
Description: as §1

SMILES: C[C@@H]1[C@H](O)[C@@H](C)/C=C/C=C/C=C/C=C/C=C/C=C/C=C/[C@H](O[C@@H]2O[C@H](C)[C@@H](O)[C@H](N)[C@@H]2O)C[C@@H]2O[C@](O)(C[C@@H](O)C[C@@H](O)[C@H](O)CC[C@@H](O)C[C@@H](O)CC(=O)O[C@H]1C)C[C@H](O)[C@H]2C(=O)O [AMB, amphotericin B]
- MIC (C. albicans NRRL Y-477 [1]; NRRL Y-477 spontaneous mutant, Fks1 HS1 S645P): 0.25 µg/mL (≈ 0.271 µM)
- Broth MIC (C. albicans NRRL Y-477 [1]; NRRL Y-477 wild-type, 24 h, ~50% inhibition): 0.5 µg/mL
- Solubility [2]: S
- MIC ([3]; ATCC 2001 P20-2, selecting drug ANID, Fks1 HS1 D632Y): 1 µg/mL (≈ 1.08 µM)
- MIC ([3]; ATCC 2001 P20-2, selecting drug CAS): 0.5 µg/mL (≈ 0.541 µM)
- MIC ([3]; ATCC 2001 P20-2, selecting drug CMP1): 0.25 µg/mL (≈ 0.271 µM)
- MIC ([3]; ATCC 90030 P20-1, selecting drug ANID, Fks2 HS1 D666I, 48 h read): 0.5 µg/mL (≈ 0.541 µM)
- MIC ([3]; ATCC 90030 P20-1, selecting drug CAS, Fks2 HS1 F659I D666Y, 48 h read): 0.25 µg/mL (≈ 0.271 µM)
- MIC ([3]; ATCC 90030 P20-2, selecting drug CMP1): 0.5 µg/mL (≈ 0.541 µM)
- reduction in fungal counts ([4]; 3 mg/kg IV once, 72 hr time point): two log reduction
- antimicrobial effect versus vehicle (one-way ANOVA, Dunnett's test) ([4]; 48 and 72 hr after infection, Compound 1 3, 10, 30 mg/kg IP, amphotericin B 1 and 3 mg/kg IV, fluconazole 20 mg/kg PO): Significant effects
- MIC (C. albicans NRRL Y-477 [5]; NRRL Y-477 P20-1, selecting drug ANID, Fks1 HS1 S645Y, 48 h read): 0.5 µg/mL (≈ 0.541 µM)
- MIC (C. albicans NRRL Y-477 [5]; NRRL Y-477 P20-1, selecting drug CAS): 0.25 µg/mL (≈ 0.271 µM)
- MIC (C. albicans NRRL Y-477 [5]; NRRL Y-477 P20-1, selecting drug CMP1, 48 h read): 0.5 µg/mL (≈ 0.541 µM)
- survival versus vehicle [6]: significantly longer survival than vehicle
- MIC (C. parapsilosis CP02 [7]; CP02 P20-1, selecting drug ANID): 0.5 µg/mL (≈ 0.541 µM)
- MIC (C. parapsilosis CP02 [7]; CP02 P20-1, selecting drug CAS): 0.5 µg/mL (≈ 0.541 µM)
- MIC (C. parapsilosis CP02 [7]; CP02 P20-1, selecting drug CMP1): 0.5 µg/mL (≈ 0.541 µM)
- Susceptibility (CLSI) ([8]; C. albicans R357): S
- MIC ([8]; endpoint 100% inhibition): 0.5 µg/mL (≈ 0.541 µM)
- MIC ([9]; ATCC 2001 spontaneous mutant, Fks2 HS1 D666N): 0.5 µg/mL (≈ 0.541 µM)
- MIC ([9]; ATCC 2001 spontaneous mutant, Fks2 HS1 D666Y): 0.5 µg/mL (≈ 0.541 µM)
- MIC ([9]; ATCC 2001 spontaneous mutant, Fks2 HS1 R665G): 0.25 µg/mL (≈ 0.271 µM)
- MIC ([9]; ATCC 2001 spontaneous mutant, Fks2 HS1 S663F): 0.25 µg/mL (≈ 0.271 µM)
- MIC ([9]; ATCC 2001 spontaneous mutant, Fks2 HS1 ΔF659): 0.25 µg/mL (≈ 0.271 µM)
- MIC ([9]; ATCC 2001 spontaneous mutant, Fks2 HS2 R1378S): 0.25 µg/mL (≈ 0.271 µM)
- Broth MIC ([9]; ATCC 2001 wild-type): 0.5 µg/mL
- MIC ([9]; ATCC 90030 spontaneous mutant, Fks2 HS1 D666H): 0.5 µg/mL (≈ 0.541 µM)
- MIC ([9]; ATCC 90030 spontaneous mutant, Fks2 HS1 ΔF659): 0.5 µg/mL (≈ 0.541 µM)
- Broth MIC ([9]; ATCC 90030 wild-type): 0.5 µg/mL
- MIC (C. krusei ATCC 6258 [10]; ATCC 6258 P20-2, selecting drug ANID): 1 µg/mL (≈ 1.08 µM)
- MIC (C. krusei ATCC 6258 [10]; ATCC 6258 P20-2, selecting drug CAS, Fks1 HS2 I1366S): 1 µg/mL (≈ 1.08 µM)
- MIC (C. krusei ATCC 6258 [10]; ATCC 6258 P20-2, selecting drug CMP1, Fks1 HS2 I1366S): 1 µg/mL (≈ 1.08 µM)
- Broth MIC (C. parapsilosis CP02 [11]): 0.5 µg/mL
- Broth MIC (C. krusei ATCC 6258 [12]): 1 µg/mL
